Source: patent US20250351832A1, “PHYTOCHEMICALS AS BIOPESTICIDES AND BIOSTIMULANTS” (KAY BEE BIO ORGANICS PVT. LTD., priority 2024, published 2025)
Like-named read-outs stand apart in the source and are kept apart here.

How the values were obtained:
[1] = cited from earlier work
Helicoverpa armigera [2] = details: Helicoverpa armigera 3rd instar on chickpea plants, dose 1 ml/gm/lit. spray
Alternaria alternata [3] = test: Alternaria leaf spot/blight on inoculated tomato plants (Ex. 28); format: in vivo; details: tomato plants, Alternaria alternata; after 7 days; dose 1 ml/gm/lit
tomato seedlings = test: Response of tomato plants, greenhouse growth (Ex. 30); format: in vivo; details: tomato seedlings, dose 1 ml/gm/lit
chili seedlings = test: Response of chili plants, greenhouse growth (Ex. 31); format: in vivo; details: chili seedlings, dose 1 ml/gm/lit
Mealy Bug [4] = details: Mealy Bug on cotton leaves, dose 1 ml/gm/lit., 48 Hrs.
Mealy Bug [5] = details: mealy bug on cotton plants, green house, dose 1 ml/gm/lit. spray
Alternaria alternata [6] = test: In vitro poisoned food technique against fungus (Ex. 20); format: cell-based; details: poisoned food technique, PDA medium, dose 1 ml/gm/lit., after seven days
Mite [7] = details: mite on okra plants, green house, dose 1 ml/gm/lit. spray
Helicoverpa armigera [8] = details: Helicoverpa armigera on okra fruits, dose 1 ml/gm/lit., 72 Hrs.
Mite [9] = details: Dose 1 ml/gm/lit.
Thrips [10] = details: Thrips on cotton leaves, dose 1 ml/gm/lit.
Aphid [11] = details: Aphids on cotton plants, green house, dose 1 ml/gm/lit.
Thrips [12] = details: thrips on cotton plants, greenhouse, dose 1 ml/gm/lit. spray
Spodoptera litura [13] = details: Spodoptera litura on castor leaves, dose 1 ml/gm/lit.
Aphid [14] = details: Dose 1 ml/gm/lit.
Spodoptera litura [15] = details: Spodoptera litura 3rd instar on cabbage plants, dose 1 ml/gm/lit. spray
[16] = Table 13, descriptive, no test described
[17] = 72 hrs, corrected for water control
[18] = 10 insects/treatment, 4 replications
[19] = 48 hrs, corrected for water control

Substance: Berberine
- Antifungal Activity - Mode of action [1, 16]: Inhibit multipath mechanisms,
- Antioxidant Activity - Mode of action [1, 16]: Reducing Oxidative Stress
- Bactericidal Activity - Mode of action [1, 16]: Resulting in DNA damage,
- Insecticidal Activities - Mode of action [1, 16]: Disturbed moulting, larval-
- Nematicidal Activity - Mode of action [1, 16]: Effective against root knot
- Phytotonic Effect ([1]; Table 13, effect on plants, descriptive): Boost
- % Mortality at 72 Hrs. (Helicoverpa armigera [2]; 72 hrs after application): 62.50%
- % Corrected Mortality at 72 Hrs. (Helicoverpa armigera [2]; [17]): 62.50%
- % Disease reduction over Control (Alternaria alternata [3]): 52.89%
- Plant Height 5th Day (tomato seedlings; 5th day after application): 6.78 cm
- Stem Girth 5th Day (tomato seedlings; 5th day after application): 2.01 mm
- Plant Height 10th Day (tomato seedlings; 10th day after application): 7.34 cm
- Stem Girth 10th Day (tomato seedlings; 10th day after application): 2.25 mm
- Plant Height % Increase over pre on 10th Day (tomato seedlings; 10th day): 29.91%
- Stem Girth % Increase over pre on 10th Day (tomato seedlings; 10th day): 54.11%
- Plant Height Pre (tomato seedlings; before application): 5.65 cm
- Stem Girth Pre (tomato seedlings; before application): 1.46 mm
- CCI 5th Day (tomato seedlings; 5th day after application): 14.53
- CCI % Increase over pre on 10th Day (tomato seedlings; 10th day): 24.86%
- Root Length (cm) 10th Day (tomato seedlings; 10th day): 4.13 cm
- CCI 10th Day (tomato seedlings; 10th day after application): 15.67
- Root Length % Increase over control (tomato seedlings; 10th day, vs water control): 24.12%
- CCI Pre (tomato seedlings; pre-application baseline): 12.55
- CCI 5th Day (chili seedlings; 5th day after application): 13.04
- Plant Height (cm) 5th Day (chili seedlings; 5th day after application): 6.15 cm
- CCI % Increase over pre on 10th Day (chili seedlings; 10th day): 36.98%
- Plant Height % Increase over pre on 10th Day (chili seedlings; 10th day): 50.11%
- Root Lenght (cm) 10th Day (chili seedlings; 10th day): 3.11 cm
- Stem Girth % Increase over pre on 10th Day (chili seedlings; 10th day): 40.15%
- CCI 10th Day (chili seedlings; 10th day after application): 14.04
- Plant Height (cm) 10th Day (chili seedlings; 10th day after application): 6.89 cm
- Root Lenght % Increase over control (chili seedlings; 10th day, vs water control): 13.75%
- CCI Pre (chili seedlings; pre-application baseline): 10.25
- Plant Height (cm) Pre (chili seedlings; pre-application baseline): 4.59 cm
- Total No. of dead insect at 48 Hrs. (Mealy Bug [4]; [18]): 7.50
- % Mortality at 48 Hrs. (Mealy Bug [4]): 75.00%
- % Corrected Mortality at 48 Hrs. (Mealy Bug [4]; corrected for water control): 73.68%
- % Mortality at 48 Hrs. (Mealy Bug [5]; 48 hrs after application): 70.00%
- Total No. of dead insect at 48 Hrs. (Mealy Bug [5]; 48 hrs after application): 70.00
- % Corrected Mortality at 48 Hrs. (Mealy Bug [5]; [19]): 66.67%
- Mean colony Diameter (mm) (Alternaria alternata [6]): 45.50 mm
- % Inhibition of growth (Alternaria alternata [6]; vs untreated control): 48.30%
- % Mortality at 48 Hrs. (Mite [7]; 48 hrs after application): 45.00%
- Total No. of dead insect at 48 Hrs. (Mite [7]; 48 hrs after application): 45.00
- % Corrected Mortality at 48 Hrs. (Mite [7]; [19]): 42.11%
- Total No. of dead insect at 72 Hrs. (Helicoverpa armigera [8]; [18]): 6.50
- % Mortality at 72 Hrs. (Helicoverpa armigera [8]): 65.00%
- % Corrected Mortality at 72 Hrs. (Helicoverpa armigera [8]; corrected for water control): 65.00%
- Total No. of dead insect at 48 Hrs. (Mite [9]; 10 insects/treatment, 4 replications, okra leaves): 4.75
- % Corrected Mortality at 48 Hrs. (Mite [9]; 48 hrs): 43.24%
- % Mortality at 48 Hrs. (Mite [9]; 48 hrs): 47.50%
- Total No. of dead insect at 48 Hrs. (Thrips [10]; 10 insects/treatment, 48 hrs after application): 6.50
- % Mortality at 48 Hrs. (Thrips [10]; 48 hrs after application): 65.00%
- % Corrected Mortality at 48 Hrs. (Thrips [10]; [19]): 60.00%
- Total No. of dead insect at 48 Hrs. (Aphid [11]; 10 insects/plant, 10 plants/treatment, 48 hrs): 55.00
- % Mortality at 48 Hrs. (Aphid [11]; 48 hrs after application): 55.00%
- % Corrected Mortality at 48 Hrs. (Aphid [11]; [19]): 47.06%
- % Mortality at 48 Hrs. (Thrips [12]; 48 hrs after application): 67.50%
- Total No. of dead insect at 48 Hrs. (Thrips [12]; 48 hrs after application): 67.50
- % Corrected Mortality at 48 Hrs. (Thrips [12]; [19]): 63.89%
- Total No. of dead insect at 72 Hrs. (Spodoptera litura [13]; 10 insects/treatment, 72 hrs after application): 7.00
- % Mortality at 72 Hrs. (Spodoptera litura [13]; 72 hrs after application): 70.00%
- % Corrected Mortality at 72 Hrs. (Spodoptera litura [13]; [17]): 68.42%
- Total No. of dead insect at 48 Hrs. (Aphid [14]; 10 insects/treatment, 4 replications, cotton leaves): 5.25
- % Corrected Mortality at 48 Hrs. (Aphid [14]; 48 hrs): 45.71%
- % Mortality at 48 Hrs. (Aphid [14]; 48 hrs): 52.50%
- % Mortality at 72 Hrs. (Spodoptera litura [15]; 72 hrs after application): 67.50%
- % Corrected Mortality at 72 Hrs. (Spodoptera litura [15]; [17]): 65.79%
